Experimental data published in patent US20150065440A1 (Progen Pharmaceuticals Limited, priority 2007, published 2015).
Structures can show the parent of a compound that is named as a salt. Where two headings read alike, the source gives them in different places.

Legend:
[1] = test system: pooled normal human plasma; experiment: Anticoagulant activity, APTT; details: 0.1 mg/mL in normal pooled human plasma
Protocol: APTT measurements were performed on a STAGO STA-Compact Coagulation Analyser using standard protocols according to the manufacturer's instructions. Unfractionated heparin (UFH) was used as a control.

VEGF = biological target: T1, VEGF (Homo sapiens, UniProt P15692); experiment: Growth factor binding assay (SPR solution affinity), VEGF; details: HBS-EP buffer, 25° C.
T1 sequence (P15692 207-395): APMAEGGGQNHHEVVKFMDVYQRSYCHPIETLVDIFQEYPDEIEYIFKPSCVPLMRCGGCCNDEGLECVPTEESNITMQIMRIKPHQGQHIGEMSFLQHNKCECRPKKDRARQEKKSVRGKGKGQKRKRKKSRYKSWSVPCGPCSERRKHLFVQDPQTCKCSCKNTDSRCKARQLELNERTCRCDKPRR
Protocol: (§1) Binding affinities of compounds for the growth factors FGF-1, FGF-2 and VEGF were measured using a surface plasmon resonance (SPR) based solution affinity assay.^9 Heparin-coated sensorchips used for this assay were prepared via immobilisation of biotinylated BSA-heparin on a streptavidin-coated sensorchip, or via aldehyde coupling using either adipic acid dihydrazide or 1,4-diaminobutane.^9 For each Kd measurement, solutions were prepared containing a fixed concentration of protein and varying concentrations of the ligand in buffer. Ligands binding to FGF-1 and VEGF were measured in HBS-EP buffer (10 mM HEPES, pH 7.4, 150 mM NaCl, 3.0 mM EDTA and 0.005% (v/v) polysorbate 20), while binding to FGF-2 was measured in HBS-EP buffer containing 0.3 M NaCl. Prior to injection, samples were maintained at 4° C. to maximise protein stability. For each assay mixture, 50-200 μL of solution was injected at 5-40 μL/min and the relative binding response measured. All surface binding experiments were performed at 25° C. The surface was regenerated by injection of 40 μL of 4M NaCl at 40 μL/min, followed by injection of 40 μL of buffer at 40 μL/min.
(§2) Sensorgram data were analysed using the BIAevaluation software (BIAcore) and Kd values determined as previously described.^9 Where Kd values were measured in duplicate, the values represent the average of the duplicate measurements.

[2] = test system: normal pooled human plasma; experiment: Anticoagulant activity, Heptest; details: 0.1 mg/mL in normal pooled human plasma
[3] = test system: HUVEC proliferation induced by FGF-1; experiment: Growth factor induced endothelial cell proliferation assay, FGF-1; format: cell-based, human; details: Homo sapiens, HUVEC, 72 h; read-out: FGF-1 (IC50) inhibition of HUVEC proliferation
From the text: (§3) HUVEC cells were maintained and subcultured according to standard cell culture protocols essentially as described by Lonza. Briefly, cells were maintained in Lonza endothelial growth media (EGM) with recommended supplements and growth factors (VEGF, FGF2, EFG, IGF, hydrocortisone, fetal bovine serum (FBS), ascorbic acid, heparin and gentamicin). Cells were subcultured when they reached 70-80% confluence by trypsinisation and reseeding in fresh growth medium in new culture vessels at 2500 to 5000 cells/cm^2 of vessel surface area. Cell counts were performed using a haemocytometer and viable cells were visualized with trypan blue.
(§4) Medium for the proliferation studies was prepared using EGM with 2% FBS and gentamicin only. In a later study, complete EGM was used for the VEGF groups in an attempt to enhance the proliferative index of VEGF-stimulated groups. For the tube formation assay, complete medium was used with only heparin omitted. Compounds under investigation were weighed out from powder stocks and diluted in PBS to 10 mM stock solutions and stored at −80° C. For experiments, compounds were subsequently diluted in EBM-2 medium (supplemented with 2% FBS and gentamicin) to various working concentration as required.
(§5) In the first of a series of experiments, the assay was further optimized by examining the cell density and growth factor concentration required to induce maximal proliferation by growth factors. Briefly, 100 μL of cells was added to each well at concentrations between 1-3×10^3 per well. Growth factors and test compounds were then added in 50 μL volumes at specified concentrations to obtain a final volume of 200 μL. Following incubation for 70 h, 20 μL of the CellTitre 96® Aqueous One Solution Cell Proliferation Assay (Promega) was added for 2 h prior to reading the absorbance at 490 nm to obtain OD values.

[4] = test system: HUVEC proliferation induced by FGF-2; experiment: Growth factor induced endothelial cell proliferation assay, FGF-2; format: cell-based, human; details: Homo sapiens, HUVEC, 72 h; read-out: FGF-2 (IC50) inhibition of HUVEC proliferation
From the text: as §3, §4, §5

RSV = experiment: Viral plaque number-reduction assay, RSV; details: human respiratory syncytial virus, read-out: RSV IC50
Protocol: (§6) African green monkey kidney (GMK AH1) cells^46 were cultured in Eagle's minimum essential medium (EMEM) supplemented with 2% calf serum, 0.05% Primaton RL substance (Kraft Inc., Norwich, USA) and antibiotics. Human epidermoid carcinoma (HEp-2) cells were cultured in Dulbecco's modified EMEM (DMEM) supplemented with 10% fetal calf serum and antibiotics. […] The RSV strain A-2^50 was used. The RSV stock was prepared as described by Hallak et al.^51 and stored at −70° C. in the presence of 40% sucrose^52.
(§7) The viral infectivity (the plaque number-reduction) assay and the plaque size-reduction assay were carried out as described previously^17. […] Subsequently, the cells were washed with 2 mL of EMEM and overlaid with 1% methylcellulose solution in EMEM. The plaques were visualized by staining with crystal violet solution after 2 (HSV-2) or 3 (HSV-1) days of incubation at 37° C. […] When the compounds were screened for anti-HSV or anti-RSV activity, mixtures of 200 PFU of the virus and the test compound (100 μg/mL) in serum-free EMEM were incubated for 10 min at room temperature before addition to cells and during the entire period of viral infection of cells and the development of viral plaques. In the plaque size-reduction assay, the compounds were added to cells (in methylcellulose overlay medium) after 2 h period of virus infection of cells in the absence of the inhibitor. After 2-3 days of incubation at 37° C., the viral plaques were visualized by staining the cells with 1% solution of crystal violet. For each compound tested, the images of twenty neighboring plaques were captured using a Leica DC300 digital camera attached to a Leitz-Wetzlar Diavert microscope. The area of each plaque was determined using IM500 image software (Leica). Similar protocols were used for RSV, except that the assays were performed in HEp-2 cells and DMEM supplemented with 2% heat-inactivated fetal calf serum was used instead of EMEM.

[5] = test system: HUVEC proliferation induced by VEGF; experiment: Growth factor induced endothelial cell proliferation assay, VEGF; format: cell-based, human; details: Homo sapiens, HUVEC, 72 h; read-out: VEGF (IC50) inhibition of HUVEC proliferation
From the text: as §3, §4, §5

HSV-2 = experiment: Viral plaque number-reduction assay, HSV-2; details: Human alphaherpesvirus 2, read-out: HSV-2 IC50
Protocol: as §6, §7

[6] = biological target: T2, recombinant human heparanase (Homo sapiens, UniProt Q9Y251); experiment: Heparanase inhibition assay (fondaparinux cleavage, WST-1)
T2 sequence (Q9Y251 158-543 limits assumed): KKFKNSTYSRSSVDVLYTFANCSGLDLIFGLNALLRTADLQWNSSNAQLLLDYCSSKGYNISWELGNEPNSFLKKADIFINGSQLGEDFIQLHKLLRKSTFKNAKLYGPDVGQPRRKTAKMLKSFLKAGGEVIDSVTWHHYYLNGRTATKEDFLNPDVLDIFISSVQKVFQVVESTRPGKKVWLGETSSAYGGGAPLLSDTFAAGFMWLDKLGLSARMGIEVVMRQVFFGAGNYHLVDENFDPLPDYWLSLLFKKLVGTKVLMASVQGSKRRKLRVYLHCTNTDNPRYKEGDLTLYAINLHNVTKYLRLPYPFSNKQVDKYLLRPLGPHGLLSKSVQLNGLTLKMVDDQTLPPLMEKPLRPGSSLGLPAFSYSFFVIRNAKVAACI
T2 sequence (Q9Y251 36-109 limits assumed): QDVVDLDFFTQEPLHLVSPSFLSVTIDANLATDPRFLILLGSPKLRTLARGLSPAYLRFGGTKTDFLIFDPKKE

FGF-2 = FGF-2 (Homo sapiens, UniProt P09038); experiment: Growth factor binding assay (SPR solution affinity), FGF-2
FGF-2, sequence (P09038 143-288, species assumed): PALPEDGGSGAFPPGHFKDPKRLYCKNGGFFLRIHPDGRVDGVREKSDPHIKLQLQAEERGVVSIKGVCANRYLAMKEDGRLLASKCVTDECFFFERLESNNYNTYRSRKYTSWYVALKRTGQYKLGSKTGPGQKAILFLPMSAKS
Protocol: as §1, §2

FGF-1 = FGF-1 (Homo sapiens, UniProt P05230); experiment: Growth factor binding assay (SPR solution affinity), FGF-1
FGF-1, sequence (P05230 whole entry, species assumed): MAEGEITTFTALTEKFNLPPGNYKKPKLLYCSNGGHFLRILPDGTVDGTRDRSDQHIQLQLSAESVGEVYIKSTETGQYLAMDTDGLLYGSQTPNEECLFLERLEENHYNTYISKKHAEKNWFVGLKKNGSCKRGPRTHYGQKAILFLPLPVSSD
Protocol: as §1, §2

[7] = SPR, HBS-EP buffer containing 0.3 M NaCl, 25° C., read-out: Kd FGF-2
[8] = SPR, HBS-EP buffer, 25° C., read-out: Kd FGF-1

Row | Compound | APTT [1] | Kd (VEGF) | Heptest [2] | IC50 [3] | IC50 [4] | IC50 (RSV) | IC50 [5] | IC50 (HSV-2) | Ki [6] | Kd (FGF-2) | Kd (FGF-1) | Kd (FGF-2; [7]) | Kd (FGF-1; [8]) | Ki ([6]; read-out: Ki Heparanase, IC50 converted into Ki, fondaparinux 100 μM, pH 5.0)
1 | CC(C)CCC[C@@H](C)[C@H]1CC[C@H]2[C@@H]3CCC4CC(O[C@@H]5O[C@H](COS(=O)(=O)O)[C@@H](O[C@@H]6O[C@H](COS(=O)(=O)O)[C@@H](OS(=O)(=O)O)[C@H](OS(=O)(=O)O)[C@H]6OS(=O)(=O)O)[C@H](OS(=O)(=O)O)[C@H]5OS(=O)(=O)O)CC[C@]4(C)[C@H]3CC[C@]12C (stereo partly drawn) [Compound 107, 3′-Cholestanyl 2,3,4,6-tetra-O-sulfo-β-D-glucopyranosyl-(1→4)-2,3,6-tri-O-sulfo-β-D-glucopyranoside, heptasodium salt] | 38.8 s | 1350 ± 70 nM | 25.3 s | 5.75 µM | 5.59 µM | 1.9 µg/mL | 5560 nM | 0.43 µg/mL |  |  |  |  |  | 
2 | CC(C)CCCC(C)C1CCC2C3CCC4CC(OCc5cn(C6OC(COS(=O)(=O)O)C(OC7OC(COS(=O)(=O)O)C(OS(=O)(=O)O)C(OS(=O)(=O)O)C7OS(=O)(=O)O)C(OS(=O)(=O)O)C6OS(=O)(=O)O)nn5)CCC4(C)C3CCC12C [Compound 93, 4-(Cholestan-3β-yl-oxymethyl) [1,2,3]triazol-1-yl 2,3,4,6-tetra-O-sulfo-β-D-galactopyranosyl-(1→4)-2,3,6-tri-O-sulfo-β-D-glucopyranoside, heptasodium salt] | 39.6 s | 1600 ± 300 nM | 25.3 s | 2.69 µM | 2.43 µM | 0.4 µg/mL | 2620 nM | 0.27 µg/mL | 30 ± 7 nM | 1800 ± 300 nM | 610 ± 210 nM |  |  | 
3 | CC(C)CCC[C@@H](C)[C@H]1CC[C@H]2[C@@H]3CC[C@H]4C[C@@H](OCc5cn([C@@H]6O[C@H](COS(=O)(=O)O)[C@@H](O[C@H]7O[C@H](COS(=O)(=O)O)[C@@H](OS(=O)(=O)O)[C@H](OS(=O)(=O)O)[C@H]7OS(=O)(=O)O)[C@H](OS(=O)(=O)O)[C@H]6OS(=O)(=O)O)nn5)CC[C@]4(C)[C@H]3CC[C@]12C [Compound 97, 4-(Cholestan-3β-yl-oxymethyl) [1,2,3]triazol-1-yl 2,3,4,6-tetra-O-sulfo-α-D-glucopyranosyl-(1→4)-2,3,6-tri-O-sulfo-β-D-glucopyranoside, heptasodium salt] | 40.3 s | 1930 ± 230 nM | 26.7 s | 4.09 µM | 4.17 µM | 0.58 µg/mL | 1130 nM | 0.26 µg/mL |  |  |  | 3400 ± 300 nM | 840 ± 130 nM | 
4 | CC(C)CCCC(C)C1CCC2C3CCC4CC(OC5OC(COS(=O)(=O)O)C(OC6OC(COS(=O)(=O)O)C(OS(=O)(=O)O)C(OS(=O)(=O)O)C6OS(=O)(=O)O)C(OS(=O)(=O)O)C5OS(=O)(=O)O)CCC4(C)C3CCC12C [Compound 102, 3′-Cholestanyl 2,3,4,6-tetra-O-sulfo-α-D-glucopyranosyl-(1→4)-2,3,6-tri-O-sulfo-β-D-glucopyranoside, heptasodium salt] | 38.6 s | 1200 ± 400 nM | 23.9 s | 3.95 µM | > 10 µM | 1.8 µg/mL | 5170 nM | 0.43 µg/mL |  |  | 560 ± 30 nM | 2200 ± 400 nM |  | 
5 | CC(C)CCC[C@@H](C)[C@H]1CC[C@H]2[C@@H]3CC[C@H]4C[C@@H](O[C@H]5O[C@H](COS(=O)(=O)O)[C@@H](OS(=O)(=O)O)[C@H](OS(=O)(=O)O)[C@@H]5OS(=O)(=O)O)CC[C@]4(C)[C@H]3CC[C@]12C [Compound 79, 3β-Cholestanyl 2,3,4,6-tetra-O-sulfonato-α-D-mannopyranoside tetrasodium salt] | 36.1 s | 3000 ± 400 nM | 23.9 s | 2.2 µM | 2.9 µM | 2.9 µg/mL | 2240 nM | 0.28 µg/mL |  |  |  |  | 3600 ± 600 nM | 111 ± 28 nM
